Reference: article PMC9118628, “Synthesis, molecular docking, and cytotoxicity of quinazolinone and dihydroquinazolinone derivatives as cytotoxic agents” (BMC Chemistry, 2022)
Like-named read-outs stand apart in the source and are kept apart here.

What was measured:
[1] = test system: MCF-7 breast cancer cell line; experiment: MTT cytotoxicity assay, MCF-7; format: cell-based; conditions: Homo sapiens
Protocol: (§1) The selected compounds 5a–e and 10a–f were evaluated as possible cytotoxic agents against human colon cancer HCT-116 cell line and MCF-7 breast cancer cell line by MTT assay using doxorubicin as the standard drug. […] The IC50 value was calculated from the inhibition rates at the mentioned durations. […] This is because the IC50 values in 72 h with p-value < 0.0001 are less than those in 48 h.
(§2) The human cancer cells MCF-7and HCT-116 as well as Hek-293 as normal cells were purchased from Pastor Institute of Iran. The cells were maintained in RPMI 1640 medium supplemented with 10% heat-inactivated fetal bovine serum (Company: DNAbiotec, Cat number: DB9723), and streptomycin ([…]) and penicillin (100 U/ml) at 37 °C in a humidified atmosphere with 5% CO2 in the air.
(§3) The cytotoxic activities of compounds 5a–e and 10a–f were evaluated against cancerous cell lines. […] The absorbance was read at 570 nm against a test wavelength of 690 nm […]. The inhibition percentage of compounds was calculated as: ODwells treated with DMSO1%–ODwells treated with compounds/ODwells treated with DMSO1%*100 (OD = absorbance). Then, IC50 values were calculated by nonlinear regression analysis.

[2] = test system: human colon cancer HCT-116 cell line; experiment: MTT cytotoxicity assay, HCT-116; format: cell-based
Protocol: as §1, §2, §3

PARP10 = conditions: cited from earlier work
Hek-293 cell lines = experiment: MTT toxicity assessment on normal cells; format: cell-based; conditions: for IC50: Homo sapiens, HEK293, Hek-293 normal cells, 72 h, read-out: IC50 (µM) Hek-293 after 72 h; for toxicity against Hek-293 cell lines (in words): Hek-293 normal cells
Protocol: as §2, §3

[3] = MCF7, MCF-7, 48 h, read-out: IC50 (µM) MCF-7 48 h
[4] = MCF7, MCF-7, 72 h, read-out: IC50 (µM) MCF-7 72 h
[5] = HCT-116, 48 h, read-out: IC50 (µM) HCT-116 48 h
[6] = HCT-116, 72 h, read-out: IC50 (µM) HCT-116 72 h

SMILES | IC50 [1, 3] | IC50 [1, 4] | IC50 [2, 5] | IC50 [2, 6] | melting point | IC50 (PARP10) | IC50 (Hek-293 cell lines) | toxicity against Hek-293 cell lines (in words) (Hek-293 cell lines)
CC(C)n1c(Nc2ccccc2)nc2ccccc2c1=O [Compound 5e, 3-isopropyl-2-(phenylamino)quinazolin-4(3H)-one] | 79 µM | 42.7 µM | 88.7 µM | 63.3 µM | 143 to 146 °C |  |  | 
CC#Cc1ccc2c(=O)[nH]c(CSc3ncccn3)nc2c1 [Compound G] |  |  |  |  |  | 9.3 µM |  | 
O=c1c2ccccc2nc(Nc2ccccc2)n1C1CC1 [Compound 5c, 3-cyclopropyl-2-(phenylamino)quinazolin-4(3H)-one] | 74.9 µM | 50.4 µM | 59.2 µM | 29.2 µM | 141 to 144 °C |  |  | 
Cc1ccccc1Cn1cc(COc2ccc(C3Nc4ccccc4C(=O)N3Cc3ccc(F)cc3)cc2)nn1 (stereo not drawn) [Compound 10e, 3-(4-fluorobenzyl)-2-(4-((1-(2-methylbenzyl)-1H-1,2,3-triazol-4-yl)methoxy)phenyl)-2,3-dihydroquinazolin-4(1H)-one] | 79.1 µM | 48.8 µM | 48.2 µM | 33.3 µM | 63 to 65 °C |  |  | 
COc1cccc2c1C(=O)c1c(O)c3c(c(O)c1C2=O)C[C@@](O)(C(=O)CO)C[C@@H]3O[C@H]1C[C@H](N)[C@H](O)[C@H](C)O1 [DOX, doxorubicin, reference compound] | 1.33 µM | 1.08 µM | 1.66 µM | 1.2 µM |  |  | 0.75 ± 0.09 µM | 
O=C1c2ccccc2NC(c2ccc(OCc3cn(Cc4ccc(Br)cc4)nn3)cc2)N1Cc1ccccc1 (stereo not drawn) [Compound 10d, 3-benzyl-2-(4-((1-(4-bromobenzyl)-1H-1,2,3-triazol-4-yl)methoxy)phenyl)-2,3-dihydroquinazolin-4(1H)-one] | 44.7 µM | 14.8 µM | 251 µM | 206 µM | 93 to 95 °C |  |  | 
CC#Cc1ccc2c(=O)[nH]c(CSc3ccc(C(=O)O)cc3)nc2c1 [Compound F] |  |  |  |  |  | 0.2 µM |  | 
Cc1c(-c2ccnc(C(F)(F)F)c2)ccc2c1CCNC2=O [H] |  |  |  |  |  | 2.7 µM |  | 
O=C1c2ccccc2NC(c2ccc(OCc3cn(Cc4ccc(F)cc4)nn3)cc2)N1Cc1ccccc1 (stereo not drawn) [Compound 10b, 3-benzyl-2-(4-((1-(4-fluorobenzyl)-1H-1,2,3-triazol-4-yl)methoxy)phenyl)-2,3 dihydroquinazolin-4(1H)-one] | 139 µM | 98.5 µM | 184 µM | 64 µM | 83 to 86 °C |  |  | 
Cc1ccccc1Nc1nc2ccccc2c(=O)n1-c1ccccc1 [Compound 5a, 2-[(2-Methylphenyl)amino]-3-phenylquinazolin-4(3H)-one] | 71.2 µM | 14.7 µM | 7.15 µM | 4.87 µM | 254 to 258 °C |  | 8.71 ± 1.23 µM | high toxicity
O=c1c2ccccc2nc(Nc2ccccc2)n1CCl [Compound 5b, 3-(chloromethyl)-2-(phenylamino)quinazolin-4(3H)-one] | 101 µM | 76.2 µM | 59.3 µM | 37.8 µM | 194 to 197 °C |  |  | 
O=C1c2ccccc2NC(c2ccc(OCc3cn(Cc4ccc(Cl)cc4)nn3)cc2)N1Cc1ccccc1 (stereo not drawn) [Compound 10c, 3-benzyl-2-(4-((1-(4-chlorobenzyl)-1H-1,2,3-triazol-4-yl)methoxy)phenyl)-2,3-dihydroquinazolin-4(1H)-one] | 52 µM | 32.3 µM | 120 µM | 61 µM | 84 to 87 °C |  |  | 
O=C1c2ccccc2NC(c2ccc(OCc3cn(Cc4ccccc4)nn3)cc2)N1Cc1ccccc1 (stereo not drawn) [Compound 10a, 3-benzyl-2-(4-((1-benzyl-1H-1,2,3-triazol-4-yl)methoxy)phenyl)-2,3-dihydroquinazolin-4(1H)-one] | 62.3 µM | 18.9 µM | 88.8 µM | 29 µM | 65 to 68 °C |  |  | 
O=C1c2ccccc2NC(c2ccc(OCc3cn(Cc4ccc(F)cc4)nn3)cc2)N1Cc1ccc(F)cc1 (stereo not drawn) [Compound 10f, 3-(4-fluorobenzyl)-2-(4-((1-(4-fluorobenzyl)-1H-1,2,3-triazol-4-yl)methoxy)phenyl)-2,3-dihydroquinazolin-4(1H)-one] | 41.5 µM | 16.3 µM | 40.4 µM | 10.1 µM | 69 to 72 °C |  | 56.1 ± 10.4 µM | low toxicity
COc1ccc(-n2c(Nc3ccccc3)nc3ccccc3c2=O)cc1 [Compound 5d, 3-(4-methoxyphenyl)-2-(phenylamino)quinazolin-4(3H)-one] | 28.8 µM | 25 µM | 39.2 µM | 17.8 µM | 256 to 259 °C |  | 68.1 ± 12.3 µM | low toxicity
